In series [1] the target is T1, mushroom TYR (Agaricus bisporus, UniProt C7FF04). The series can be described thus: Mushroom TYR activity assay with and without CuSO4. The following applies: 20 μM derivative, L-tyrosine. In kind it is biochemical. How it is done:
To determine whether copper(II) ions influence the TYR-inhibitory activity of 2-MMBI derivatives, the effects of these derivatives on mushroom TYR activity were measured with and without CuSO4. Briefly, mushroom TYR aqueous solution (20 μL, 1 unit/μL) was mixed with 2-MMBI derivatives (1, 3, and 8–10) (10 μL, final concentration: 20 μM) and with the substrate solution (170 μL), comprising 17.2 mM phosphate buffer (pH 6.5) and 345 μM L-tyrosine, in the presence or absence of CuSO4 (50 μL, final concentration: 50 μM) in each well of a 96-well plate. […] Each assay was carried out independently in triplicate.

For series [2], the target named is T1, mushroom TYR. The series can be described thus: Kinetic studies on mushroom TYR (Lineweaver–Burk and Dixon plots). The conditions noted are these: L-dopa as substrate. It counts as biochemical. How it is done: Kinetic experiments were performed to obtain Lineweaver–Burk plots for the analysis of mushroom TYR kinetics. Mushroom TYR solution (20 μL, 150 units/mL) was added to each well of a 96-well microplate containing 2-MMBI derivatives (10 μL; 0, 7.5, 15, and 30 μM for 1; 0, 5, 10, and 20 μM for 3 and 8; and 0, 12.5, 25, and 50 μM for 9) and a substrate solution (170 μL) composed of sodium phosphate buffer (17.2 mM; pH 6.5) and L-dopa (various concentrations: 0.5, 1, 2, 4, 8, and 16 mM). […] Lineweaver–Burk plots for each 2-MMBI derivative were obtained by plotting the value of 1/[substrate] against the value of (min/ΔOD475). Lineweaver–Burk plots were transformed into corresponding Dixon plots by plotting the value of (min/ΔOD475) against the value of the 2-MMBI derivative concentration.

Series [3] has as its system zebrafish larvae. The series is described as follows: Melanogenesis (depigmentation) assay using zebrafish embryos. In kind it is in vivo. As for the experimental part: To assess depigmentation in vivo, wild-type zebrafish (Danio rerio) embryos were acquired free of charge from the Zebrafish Center for Disease Modeling (ZCDM) located at Chungnam National University in Daejeon, Republic of Korea. The zebrafish were raised in tanks maintained at 28 °C in the ZCDM. The tanks were oxygenated, and the tank lights were turned off for 10 h and on for 14 h. The zebrafish embryos used for in vivo depigmentation experiments were obtained through natural mating. The E3 solution for zebrafish embryos was prepared by dissolving 19.9 mg magnesium sulfate, 6.4 mg potassium chloride, 18.3 mg calcium chloride, and 146.1 mg sodium chloride in 500 mL distilled water. E3-MB (methylene blue) solution was prepared by adding MB to the E3 solution to create a 0.001% MB solution. The acquired zebrafish embryos were transferred to a culture dish containing the E3-MB solution. The culture dish was incubated at 28 °C until zebrafish embryos were used. Since zebrafish embryos are sensitive and can be easily killed by the chorion removal process 20 h post-fertilization (20 hpf), the chorion was removed at 24 hpf through treatment with pronase (Sigma-Aldrich, St. Louis, MO, USA). Five dechorionated zebrafish embryos were transferred to each well of 48-well microplates containing 250 μL E3 solution. […] Zebrafish larvae were anesthetized with tricaine at 76 hpf and placed on a 1% methylcellulose block to determine the degree of zebrafish larva depigmentation. Dorsal and lateral images of the zebrafish larvae were acquired using an SMZ745T microscope (Nikon, Tokyo, Japan). The pigmented areas of the dorsal and lateral images were obtained using CS analyzer 3.0 image analysis software (ATTO, Tokyo, Japan). Each assay (n = 7) was independently performed two times.

The test system of series [4] is B16F10 cells. The series can be described thus: Melanin content measurement assay in B16F10 cells. The following applies: α-MSH 1 μM plus IBMX 200 μM, 72 h; for effect on B16F10 cellular melanin production at three concentrations: 2, 5, and 10 μM. In kind it is cell-based, murine. As for the experimental part:
A 6-well plate containing 5 × 10^3 B16F10 cells per well was incubated at 37 °C and 5% CO2 for 1 day. […] After 1 h, 1 μM α-MSH and 200 μM IBMX were added to each well, and the plate was subsequently incubated at 37 °C and 5% CO2 for 72 h. The cells were exposed to […] 1N-NaOH solution and cultured at 60 °C for 1 h after washing with PBS. The lysates were transferred to each well of a 96-well plate, and the optical density at 405 nm was recorded using a VersaMax™ reader. […] Each assay was independently performed three times.

Series [5] concerns the target T2, B16F10 cellular TYR (Mus musculus, UniProt P11344).
T2 construct: The in situ cellular TYR activities of the 2-MMBI derivatives were investigated using B16F10 cells; endogenous in cells; host or cells: B16F10 murine melanoma cells stimulated with alpha-MSH and IBMX
T2 sequence (P11344 19-533): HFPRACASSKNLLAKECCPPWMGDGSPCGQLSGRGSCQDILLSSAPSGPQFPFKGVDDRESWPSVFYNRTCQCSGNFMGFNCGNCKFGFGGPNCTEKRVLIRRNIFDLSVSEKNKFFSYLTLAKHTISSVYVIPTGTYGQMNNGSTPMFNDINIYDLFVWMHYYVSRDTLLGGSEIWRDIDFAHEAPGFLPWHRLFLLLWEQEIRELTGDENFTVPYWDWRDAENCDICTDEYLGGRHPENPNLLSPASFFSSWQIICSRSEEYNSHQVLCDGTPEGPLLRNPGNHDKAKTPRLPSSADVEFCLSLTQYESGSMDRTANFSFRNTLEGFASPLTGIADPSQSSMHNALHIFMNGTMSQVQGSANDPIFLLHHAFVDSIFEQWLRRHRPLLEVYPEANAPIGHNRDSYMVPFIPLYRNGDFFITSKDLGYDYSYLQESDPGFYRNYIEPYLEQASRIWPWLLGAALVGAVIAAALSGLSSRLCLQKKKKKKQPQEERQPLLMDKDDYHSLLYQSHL
The series can be described thus: TYR activity assay in B16F10 cells. The conditions noted are these: 2, 5, and 10 μM; α-MSH 1 μM plus IBMX 200 μM; 72 h. In kind it is cell-based, murine. How it is done:
A 6-well plate containing 5 × 10^3 B16F10 cells per well was incubated (37 °C and 5% CO2) for 1 day. […] Stimulators (1 μM α-MSH and 200 μM IBMX) were added after 1 h, and the plate was incubated (37 °C and 5% CO2) for 72 h. After washing with PBS, 100 μL lysis buffer consisting of 1% Triton X-100, 1 mM phenylmethylsulfonyl fluoride, and 50 mM sodium phosphate buffer (pH 6.5) in a volume ratio of 1:1:18 was added to each well. Following an incubation period of 30 min at −80 °C, the cell lysates were centrifuged at 12,000× g for 10 min at 4 °C to obtain the supernatants. […] Each assay was independently performed three times.

For series [6], the target named is T3, B16F10 cell TYR (Mus musculus, UniProt P11344).
T3 construct: The in situ cellular TYR activities of the 2-MMBI derivatives were investigated using B16F10 cells; endogenous in cells; host or cells: B16F10 murine melanoma cells stimulated with alpha-MSH and IBMX
T3 sequence (P11344 19-533): T2 sequence (P11344 19-533)
The series is described as follows: In situ B16F10 cellular TYR activity assay (L-dopa staining). It counts as cell-based, murine. The following applies: α-MSH plus IBMX 72 h; for in situ B16F10 cell TYR activity (cell staining), concentration series: 2, 5, and 10 μM. How it is done: B16F10 cells (2 × 10^3/well) were inoculated in each well of a 24-well microplate and cultured for 1 day in an incubator (37 °C and 5% CO2). […] Subsequently, stimulators (α-MSH [1 μM] and IBMX [200 μM]) were added to each well. […] Stained photographs were captured using a camera attached to a microscope (Motic, Hong Kong, China). Each assay was independently performed two times.

A short description of series [7]: Reactive oxygen species removal activity assay (SIN-1, DCFH). The following applies: test samples 40 μM; SIN-1 10 μM. How it is done: To assess reactive oxygen species (ROS) removal activity, a DCFH solution was prepared by mixing 50 μL DCFH-DA (1.25 mM), 50 μL esterase (0.6 unit/μL), and 4.9 mL phosphate buffer (50 mM) and maintained in the dark for 30 min. The SIN-1 solution (10 μL) was added to each well of a 96-black well that contained the test sample (10 μL; 2-MMBI derivatives 1–10 and Trolox [positive material]) and phosphate buffer (180 μL). 2-MMBI derivatives, Trolox, and SIN-1 were exposed at final concentrations of 40, 40, and 10 μM, respectively. The prepared DCFH solution (50 μL) was added to each well after 10 min. The fluorescence intensity of 2′,7′-dichlorofluorescein in the wells was measured at 535 nm using a microplate reader (Berthold Advances GmbH & Co., Bad Wildbad, Germany) with an excitation wavelength of 485 nm. Each experiment was conducted independently four times.

The mark [8] stands for this setting: CuSO4 50 μM added externally, read-out: inhibition of mushroom TYR activity with CuSO4.
Setting [9] is: no CuSO4 added externally, read-out: inhibition of mushroom TYR activity without CuSO4.
Where [10] appears, read: 0.03 and 0.1 mM, 48 h exposure from 28 hpf.

The source of these data is article PMC11505594, “Design, Synthesis, and Anti-Melanogenic Activity of 2-Mercaptomethylbenzo[d]imidazole Derivatives Serving as Tyrosinase Inhibitors: An In Silico, In Vitro, and In Vivo Exploration” (Antioxidants, 2024).

“Also recorded” adds a separate entry of the source. Read-outs that look alike come from different tables or passages of the source.

T1 sequence (C7FF04 2-392): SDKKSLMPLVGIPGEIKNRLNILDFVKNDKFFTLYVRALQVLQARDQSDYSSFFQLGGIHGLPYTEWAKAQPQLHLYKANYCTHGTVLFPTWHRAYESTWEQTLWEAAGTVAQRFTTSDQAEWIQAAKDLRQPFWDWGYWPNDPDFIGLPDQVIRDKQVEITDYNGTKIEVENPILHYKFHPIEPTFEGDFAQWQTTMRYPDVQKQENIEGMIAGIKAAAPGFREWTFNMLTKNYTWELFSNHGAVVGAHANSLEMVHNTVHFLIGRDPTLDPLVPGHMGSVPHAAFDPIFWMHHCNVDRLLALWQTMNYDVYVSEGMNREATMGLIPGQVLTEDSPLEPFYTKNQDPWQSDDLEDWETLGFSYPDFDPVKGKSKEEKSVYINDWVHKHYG

Broadly, the inhibition is the drop in the measured response relative to a control, in per cent. As for `Cc1cccc2[nH]c(CS)nc12` [Derivative 9, (4-Methyl-1H-benzo[d]imidazol-2-yl)methanethiol], the inhibition at 20 µM is 54% in series [1] (setting [8]) and 86 to 89% in series [1] (setting [9]). Besides, the inhibition mechanism result in series [2] is on record as “mixed TYR inhibitors”.
As to `N#Cc1ccc2[nH]c(CS)nc2c1` [Derivative 5, 2-(Mercaptomethyl)-1H-benzo[d]imidazole-5-carbonitrile], in series [3] (0.03 and 0.1 mM, 48 h), the “depigmentation of zebrafish larvae at 0.03 and 0.1 mM” value is given as “did not exhibit significant depigmentation”.
Turning to `Cc1cc2nc(CS)[nH]c2cc1C` [Derivative 10, (5,6-Dimethyl-1H-benzo[d]imidazol-2-yl)methanethiol], in series [1] (setting [8]), the inhibition at 20 µM amounted to 1%. For the same molecule, in series [1] (setting [9]), the inhibition at 20 µM is 60%. Further, in series [4], the “effect on B16F10 cellular melanin production at 10 μM” value (“effect … at 10 μM” below) was “inhibited melanin production more strongly than kojic acid” and the “effect on B16F10 cellular melanin production at three concentrations” value is recorded as “significantly decreased the melanin levels increased by the stimulators in a concentration-dependent manner”. The “effect on B16F10 cellular TYR activity” value in series [5] is given as “significantly reduced stimulator-enhanced cellular TYR activity in a dose-dependent manner”. For the same molecule, in series [6], the “in situ B16F10 cell TYR activity (cell staining) at 10 μM” value was “inhibited in situ B16F10 cell TYR activity much more potently than kojic acid”; the “in situ B16F10 cell TYR activity (cell staining), concentration series” value was “reduced the increase in cell staining induced by α-MSH and IBMX in a concentration-dependent manner”.
On to `Fc1ccc2[nH]c(CS)nc2c1` [Derivative 4, (5-Fluoro-1H-benzo[d]imidazol-2-yl)methanethiol], for which the zebrafish larvae death entry in series [3] (setting [10]) is “all zebrafish larvae died at the tested concentrations”.
Consider `FC(F)(F)c1ccc2[nH]c(CS)nc2c1` [Derivative 7, (5-(Trifluoromethyl)-1H-benzo[d]imidazol-2-yl)methanethiol], for which, in series [4], the “effect … at 10 μM” value is reported as “inhibited melanin production more strongly than kojic acid; also recorded: strongest melanin inhibitory effect” and the “effect on B16F10 cellular melanin production at three concentrations” value is recorded as “significantly decreased the melanin levels increased by the stimulators in a concentration-dependent manner; also recorded: potently reduced the stimulator-induced increase in melanin content to the levels observed in the control group”. Further, the “effect on B16F10 cellular TYR activity” value in series [5] is listed as “significantly reduced stimulator-enhanced cellular TYR activity in a dose-dependent manner”. In series [6], the “in situ B16F10 cell TYR activity (cell staining) at 10 μM” value is reported as “inhibited in situ B16F10 cell TYR activity much more potently than kojic acid”; the “in situ B16F10 cell TYR activity (cell staining), concentration series” value was “reduced the increase in cell staining induced by α-MSH and IBMX in a concentration-dependent manner”. In addition, the zebrafish larvae death result in series [3] (setting [10]) is “all zebrafish larvae died at the tested concentrations”. Also, in series [7], the ROS scavenging activity result is “stronger ROS scavenging efficacy than the other derivatives”.
For `SCc1nc2ccccc2[nH]1` [Derivative 1, (1H-Benzo[d]imidazol-2-yl)methanethiol], the values for the inhibition at 20 µM in series [1] (setting [8]) and in series [1] (setting [9]) were 76% and 86 to 89%, respectively. The inhibition mechanism entry in series [2] is reported as “competitive TYR inhibitors”. Further, the “effect … at 10 μM” value in series [4] is “relatively low melanin inhibitory effect”. Further, the “depigmentation of zebrafish larvae at 0.1 mM” value in series [3] (0.1 mM, compared with kojic acid 20 mM, 48 h) was “much more potent inhibition of melanin production in zebrafish larvae than kojic acid”. Also, the “pigmentation area of zebrafish larvae (CS analyzer, dorsal and lateral views)” value in series [3] (derivatives 0.03 and 0.1 mM, kojic acid 20 mM) is on record as “reduced the pigmentation area more strongly than kojic acid in a concentration-dependent manner”.
Turning to `SCc1nc2cc(Cl)ccc2[nH]1` [Derivative 2, (5-Chloro-1H-benzo[d]imidazol-2-yl)methanethiol], the “depigmentation of zebrafish larvae at 0.03 mM” value in series [3] (0.03 mM, compared with kojic acid 20 mM, 48 h) is on record as “much stronger depigmentation efficacy than kojic acid”. Further, the “zebrafish larvae death at 0.1 mM” value in series [3] (0.1 mM, 48 h exposure from 28 hpf) is on record as “died”. In series [7], the ROS scavenging activity entry was “stronger ROS scavenging efficacy than the other derivatives”.
